The values that follow come from patent publication US10544106B2, “Certain chemical entities, compositions, and methods” (NeuPharma, Inc., priority 2016, dated 2020).

In this experiment the target is BTK (Homo sapiens (Human), UniProt Q06187). Briefly: Z'-LYTE kinase inhibition assay against BTK. As to conditions: for IC50: series of concentrations, GraphPad Prism 5. In kind it is biochemical. How it is done: Inhibitory activities of compounds against BTK, EGFR T790M, EGFR L858R, and EGFR L858R/T790M were measured using Z′-LYTE® Method from Life Technologies as briefly described in the following.
BTK, sequence (Q06187 whole entry): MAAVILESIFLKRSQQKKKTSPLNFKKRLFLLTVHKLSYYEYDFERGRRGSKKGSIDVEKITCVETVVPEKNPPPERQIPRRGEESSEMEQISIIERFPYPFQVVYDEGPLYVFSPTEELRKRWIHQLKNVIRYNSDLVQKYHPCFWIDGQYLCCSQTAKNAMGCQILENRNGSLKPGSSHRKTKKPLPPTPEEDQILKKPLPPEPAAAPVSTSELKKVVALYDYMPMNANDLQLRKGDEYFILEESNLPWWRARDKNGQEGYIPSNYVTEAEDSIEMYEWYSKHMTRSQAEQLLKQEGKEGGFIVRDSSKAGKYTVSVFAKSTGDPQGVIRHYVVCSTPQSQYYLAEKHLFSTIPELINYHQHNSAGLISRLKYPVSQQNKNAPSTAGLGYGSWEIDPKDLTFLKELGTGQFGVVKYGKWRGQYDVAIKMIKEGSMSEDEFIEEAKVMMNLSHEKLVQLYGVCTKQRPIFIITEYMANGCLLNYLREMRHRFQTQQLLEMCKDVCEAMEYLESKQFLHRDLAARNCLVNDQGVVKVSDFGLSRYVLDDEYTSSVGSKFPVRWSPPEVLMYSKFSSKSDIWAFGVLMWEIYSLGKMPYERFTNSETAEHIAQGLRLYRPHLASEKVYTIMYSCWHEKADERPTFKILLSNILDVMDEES
Test Compounds are screened in 1% DMSO (final) in the well. For 10 point titrations, 3-fold serial dilutions are conducted from the starting concentration. All ATP Solutions are diluted to a 4× working concentration in Kinase Buffer (50 mM HEPES pH 7.5, 0.01% BRIJ-35, 10 mM MgCl2, 1 mM EGTA). Peptide/Kinase Mixtures are diluted to a 2× working concentration in the appropriate Kinase Buffers as described below. • (i) Peptide/Kinase Mixtures for measurement of EGFR (ErbB1) L858R: • The 2×EGFR (ErbB1) L858R/Tyr 04 mixture is prepared in 50 mM HEPES pH 7.5, 0.01% BRIJ-35, 10 mM MgCl2, 4 mM MnCl2. 1 mM EGTA, 2 mM DTT. The final 10 μL Kinase Reaction consists of 0.2-1.68 ng EGFR (ErbB1) L858R and 2 μM Tyr 04 in 50 mM HEPES pH 7.5, 0.01% BRIJ-35, 10 mM MgCl2, 2 mM MnCl2, 1 mM EGTA, 1 mM DTT. After the 1 hour Kinase Reaction incubation, 5 μL of a 1:64 dilution of Development Reagent B is added. • (ii) Peptide/Kinase Mixtures for measurement of EGFR (ErbB1) T790M: The 2×EGFR (ErbB1) T790M/Tyr 04 mixture is prepared in 50 mM HEPES pH 6.5, 0.01% BRIJ-35, 10 mM MgCl2, 1 mM EGTA, 0.02% NaN3. The final 10 μL Kinase Reaction consists of 3.9-30.2 ng EGFR (ErbB1) T790M and 2 μM Tyr 04 in 50 mM HEPES pH 7.0, 0.01% BRIJ-35, 10 mM MgCl2, 1 mM EGTA, 0.01% NaN3. After the 1 hour Kinase Reaction incubation, 5 μL of a 1:64 dilution of Development Reagent B is added. • (iii) Peptide/Kinase Mixtures for measurement of EGFR (ErbB1) L858R/T790M: The 2×EGFR (ErbB1) T790M L858R/Tyr 04 mixture is prepared in 50 mM HEPES pH 6.5, 0.01% BRIJ-35, 10 mM MgCl2, 1 mM EGTA, 0.02% NaN3. The final 10 μL Kinase Reaction consists of 0.38-4.22 ng EGFR (ErbB1) T790M L858R and 2 μM Tyr 04 in 50 mM HEPES pH 7.0, 0.01% BRIJ-35, 10 mM MgCl2, 1 mM EGTA, 0.01% NaN3. After the 1 hour Kinase Reaction incubation, 5 μL of a 1:64 dilution of Development Reagent B is added. • (iv) Peptide/Kinase Mixtures for measurement of BTK: The 2×BTK/Tyr 01 mixture is prepared in 50 mM HEPES pH 7.5, 0.010/BRIJ-35, 10 mM MgCl2, 1 mM EGTA. The final 10 μL Kinase Reaction consists of 1.04-10.4 ng BTK and 2 μM Tyr 01 in 50 mM HEPES pH 7.5, 0.01% BRIJ-35, 10 mM MgCl2, 1 mM EGTA. After the 1 hour Kinase Reaction incubation, 5 μL of a 1:256 dilution of Development Reagent B is added.
Reaction starts by 30-second shaking of mixture consisting of 2.5 μL 4× test compound, 5 μL 2× kinase reaction mixture and 2.5 μL 4×ATP Solution on Bar-coded Corning, low volume NBS, black 384-well plate (Corning Cat. #3676). Then the mixture is incubated for 60-minute at room temperature for the kinase reaction, followed by addition of 5 μL of a 1:1024 dilution of development reagent A and 30-second plate shake. The mixture is then incubated for another 60-minute at room temperature for development reaction. Finally fluorescence is read by plate reader.
The Z′-LYTE assay was carried out with ATP concentration at Km. The scale utilized in Tables 2-6 is as follows: ++ more than 50% inhibition and + less than 50% inhibition.
To determine IC50 of a compound against a kinase, a series of concentrations of the compound were tested for the inhibition. IC50 was calculated by plotting the concentration of compound vs the percentage of inhibition in treated wells using GraphPad Prism 5. […] The scale utilized in Table 7 is as follows: ++ less than 100 nM and + greater than 100 nM.

Where [1] appears, read: compound at 100 nM, ATP concentration at Km.

Take “4-(5-Amino-1-(1-(but-2-ynoyl)pyrrolidin-3-yl)imidazo[1,5-c]pyrimidin-3-yl)-N-(pyridin-2-yl)-3-(trifluoromethyl)benzamide [C248]”: the IC50 was less than 100 nM.

In the case of `C=CC(=O)N1CCC(c2nc(-c3ccc(Oc4ccccn4)cc3)n3c(N)nccc23)C1` (racemic) [C224, (R/S)-1-(3-(5-amino-3-(4-(pyridin-2-yloxy)phenyl)imidazo[1,5-c]pyrimidin-1-yl)pyrrolidin-1-yl)prop-2-en-1-one], the IC50 is less than 100 nM. In addition, under setting [1], the inhibition at 0.1 µM is greater than 50%.

`C=CC(=O)N1CCC(c2nc(-c3ccc(Oc4ccccn4)cc3)n3c(N)nccc23)C1` (racemic) [C225, (S/R)-1-(3-(5-amino-3-(4-(pyridin-2-yloxy)phenyl)imidazo[1,5-c]pyrimidin-1-yl)pyrrolidin-1-yl)prop-2-en-1-one] came in with an IC50 of less than 100 nM. The “% Inhibition against BTK” value under setting [1] was “++ (more than 50% inhibition)”.

Molecule `C=CC(=O)Nc1cccc(-c2cc(-c3ccccc3)cc3cnc(-c4ccccc4)nc23)c1` [C001, N-(3-(2,6-diphenylquinazolin-8-yl)phenyl)acrylamide] registered an inhibition at 0.1 µM under setting [1] of less than 50%.

Turning to `C=CC(=O)Nc1cccc(-c2cc(-c3ccccc3Cl)cc3cnc(-c4ccccc4)nc23)c1` [C002, N-(3-(6-(2-chlorophenyl)-2-phenylquinazolin-8yl)phenyl)acrylamide], under setting [1], the inhibition at 0.1 µM is less than 50%.

For `C=CC(=O)Nc1cccc(-c2cc(-c3ccccc3)cc3cncnc23)c1` [C004, N-(3-(6-phenylquinazolin-8-yl)phenyl)acrylamide], the IC50 is less than 100 nM. In addition, under setting [1], the inhibition at 0.1 µM was greater than 50%.

Regarding `C=CC(=O)Nc1cccc(-c2cc(-c3ccccc3)cc3cnc(N)nc23)c1` [C005, N-(3-(2-amino-6-phenylquinazolin-8-yl)phenyl)acrylamide], the IC50 is less than 100 nM. Under setting [1], the inhibition at 0.1 µM was greater than 50%.

`C=CC(=O)Nc1cccc(-c2cc(-c3ccncc3)cc3cncnc23)c1` [C006, N-(3-(6-(pyridin-4-yl)quinazolin-8-yl)phenyl)acrylamide] gave an IC50 of less than 100 nM. Besides, the inhibition at 0.1 µM under setting [1] was greater than 50%.

In turn, `C=CC(=O)Nc1cccc(-c2cc(-c3cccnc3)cc3cncnc23)c1` [C007, N-(3-(6-(pyridin-3-yl)quinazolin-8-yl)phenyl)acrylamide] gave an IC50 of less than 100 nM. This molecule came in with an inhibition at 0.1 µM under setting [1] greater than 50%.

Turning to `C=CC(=O)N1CCC=C(c2cc(-c3ccc(C(=O)Nc4ccccn4)cc3)cc3cncnc23)C1` [C009, 4-(8-(1-acryloyl-1,2,5,6-tetrahydropyridin-3-yl)quinazolin-6-yl)-N-(pyridin-2-yl)benzamide], under setting [1], the inhibition at 0.1 µM was less than 50%.

In turn, `C=CC(=O)Nc1cccc(-c2cc(-c3ccc(C)nc3)cc3cncnc23)c1` [C010, N-(3-(6-(6-methylpyridin-3-yl)quinazolin-8-yl)phenyl)acrylamide] gave an inhibition at 0.1 µM under setting [1] greater than 50%.

Take `C=CC(=O)Nc1cccc(-c2cc(-c3cccc(Nc4cccc(C(F)(F)F)c4)c3)cc3cncnc23)c1` [C011, N-(3-(6-(3-((3-(trifluoromethyl)phenyl)amino)phenyl)quinazolin-8-yl)phenyl)acrylamide]: the inhibition at 0.1 µM under setting [1] is less than 50%.

Under setting [1], `C=CC(=O)N1CCCC(n2c(-c3ccccc3)nc3cncnc32)C1` (stereo not drawn) [C012, 1-(3-(8-phenyl-9H-purin-9-yl)piperidin-1-yl)prop-2-en-1-one] gave an inhibition at 0.1 µM of less than 50%.

`C=CC(=O)Nc1cccc(-n2c(-c3ccccc3)nc3cncnc32)c1` [C014, N-(3-(8-phenyl-9H-purin-9-yl)phenyl)acrylamide] gave an inhibition at 0.1 µM under setting [1] of less than 50%.

Under setting [1], `C=CC(=O)N1CCC(n2c(-c3ccccc3)nc3cnc(N)nc32)C1` (stereo not drawn) [C015, 1-(3-(2-amino-8-phenyl-9H-purin-9-yl)pyrrolidin-1-yl)prop-2-en-1-one] had an inhibition at 0.1 µM of less than 50%.

Regarding `C=CC(=O)Nc1cccc(-c2cc(-c3ccccc3)cc3c(N)ncnc23)c1` [C016, N-(3-(4-amino-6-phenylquinazolin-8-yl)phenyl)acrylamide], the inhibition at 0.1 µM under setting [1] is less than 50%.

As to `C=CC(=O)Nc1cccc(-c2cc(-c3cccc(Nc4ccccc4)c3)cc3cncnc23)c1` [C017, N-(3-(6-(3-(phenylamino)phenyl)quinazolin-8-yl)phenyl)acrylamide], the inhibition at 0.1 µM under setting [1] is greater than 50%.

`C=CC(=O)Nc1cccc(-c2cc(-c3ccnc(C(F)(F)F)c3)cc3cncnc23)c1` [C018, N-(3-(6-(2-(trifluoromethyl)pyridin-4-yl)quinazolin-8-yl)phenyl)acrylamide]: the inhibition at 0.1 µM under setting [1] was less than 50%.

`C=CC(=O)Nc1cccc(-c2cc(-c3ccc(Nc4cccc(C(F)(F)F)c4)cc3)cc3cncnc23)c1` [C019, N-(3-(6-(4-((3-(trifluoromethyl)phenyl)amino)phenyl)quinazolin-8-yl)phenyl)acrylamide] had an inhibition at 0.1 µM under setting [1] of less than 50%.

With `C=CC(=O)N1CCCC(c2cc(-c3ccccc3)cc3cncnc23)C1` (stereo not drawn) [C020, 1-(3-(6-phenylquinazolin-8-yl)piperidin-1-yl)prop-2-en-1-one], under setting [1], the inhibition at 0.1 µM was less than 50%.

In the case of `C=CC(=O)N1CCC(n2c(-c3ccccc3)nc3cncnc32)C1` (stereo not drawn) [C021, 1-(3-(8-phenyl-9H-purin-9-yl)pyrrolidin-1-yl)prop-2-en-1-one], the inhibition at 0.1 µM under setting [1] was less than 50%.

In turn, `C=CC(=O)Nc1cccc(-c2cc(-c3cccc(Nc4ccccc4)c3)cc3c(N)ncnc23)c1` [C022, N-(3-(4-amino-6-(3-(phenylamino)phenyl)quinazolin-8-yl)phenyl)acrylamide] showed an inhibition at 0.1 µM under setting [1] of less than 50%.

Molecule `C=CC(=O)Nc1cccc(-c2cc(-c3ccc(Oc4ccccc4)cc3)cc3cncnc23)c1` [C023, N-(3-(6-(4-phenoxyphenyl)quinazolin-8-yl)phenyl)acrylamide] registered an IC50 of less than 100 nM. The same molecule registered an inhibition at 0.1 µM under setting [1] greater than 50%.

In the case of `C=CC(=O)Nc1cccc(-n2c(-c3ccccc3)nc3cnc(N)nc32)c1` [C024, N-(3-(2-amino-8-phenyl-9H-purin-9-yl)phenyl)acrylamide], the inhibition at 0.1 µM under setting [1] was less than 50%.

Molecule `C=CC(=O)Nc1cccc(-c2cc(-c3ccc(Nc4ccccc4)cc3)cc3cncnc23)c1` [C025, N-(3-(6-(4-(phenylamino)phenyl)quinazolin-8-yl)phenyl)acrylamide] gave an inhibition at 0.1 µM under setting [1] of less than 50%.

`C=CC(=O)N1CCC(n2c(-c3ccccc3Cl)nc3cnc(N)nc32)C1` (stereo not drawn) [C026, 1-(3-(2-amino-8-(2-chlorophenyl)-9H-purin-9-yl)pyrrolidin-1-yl)prop-2-en-1-one] came in with an inhibition at 0.1 µM under setting [1] of less than 50%.

For the molecule `C=CC(=O)N1CCCC(n2c(-c3ccccc3Cl)nc3cnc(N)nc32)C1` (stereo not drawn) [C027, 1-(3-(2-amino-8-(2-chlorophenyl)-9H-purin-9-yl)piperidin-1-yl)prop-2-en-1-one], the inhibition at 0.1 µM under setting [1] is less than 50%.

Consider `C=CC(=O)N1CCCC(c2cc(-c3ccc(Oc4ccccc4)cc3)cc3cnc(N)nc23)C1` (stereo not drawn) [C028, 1-(3-(2-amino-6-(4-phenoxyphenyl)quinazolin-8-yl)piperidin-1-yl)prop-2-en-1-one], for which the IC50 is less than 100 nM. The inhibition at 0.1 µM under setting [1] was greater than 50%.

As a reminder, the IC50 is the concentration that gives 50% inhibition. Read a high IC50 as a need for much substance. Broadly, the inhibition is the change of the read-out against control, counted positive when it falls. Read a low inhibition as a weak effect.
